ChEMBL document CHEMBL5104164, “Design, synthesis, and biological evaluation of pyrrolopyrimidine derivatives as novel Bruton's tyrosine kinase (BTK) inhibitors” (Eur J Med Chem, 2022)

Columns and labels:
[1] = system: Raji; assay: Antiproliferative activity against human Raji cells incubated for 72 hrs by CellTiter-Glo assay; assay type: functional, cell-based
[2] = Cmax in male BALB/c mouse at 10 mg/kg, po; assay type: ADME, organism-based; design: dose 10 mg/kg, route po; conditions: in vivo
[3] = Oral bioavailability in male BALB/c mouse; assay type: ADME, organism-based; conditions: in vivo
[4] = system: TMD8; assay: Cell cycle arrest in human TMD8 cells assessed as accumulation of cells at G2 phase at 1 nM after 48 hrs by propidium iodide staining based flow cytometric analysis (reference value: 13.4%); assay type: functional
[5] = Toxicity in female CB-17 SCID nude mouse xenografted with human TMD8 cells assessed as effect on red blood cells at 50 mg/kg, po administered twice daily for 21 days; assay type: organism-based; conditions: in vivo, 504 h, time 21 day
[6] = Mutagenicity in Salmonella typhimurium TA100 at 1.5 to 1000 ug per plate by AMES test; assay type: toxicity, Salmonella enterica subsp. enterica serovar Typhimurium; conditions: dose 1.5-1000 µg
[7] = Mutagenicity in Salmonella typhimurium TA1537 at 1.5 to 1000 ug per plate by AMES test; assay type: toxicity, Salmonella enterica subsp. enterica serovar Typhimurium; conditions: dose 1.5-1000 µg
[8] = target: T1, Tyrosine-protein kinase JAK3 (Homo sapiens) (UniProt P52333); assay: Inhibition of Jak3 (unknown origin) assessed as residual percent of control at 1 uM measured by DiscoverX kinome scan assay relative to control
T1 sequence (whole entry): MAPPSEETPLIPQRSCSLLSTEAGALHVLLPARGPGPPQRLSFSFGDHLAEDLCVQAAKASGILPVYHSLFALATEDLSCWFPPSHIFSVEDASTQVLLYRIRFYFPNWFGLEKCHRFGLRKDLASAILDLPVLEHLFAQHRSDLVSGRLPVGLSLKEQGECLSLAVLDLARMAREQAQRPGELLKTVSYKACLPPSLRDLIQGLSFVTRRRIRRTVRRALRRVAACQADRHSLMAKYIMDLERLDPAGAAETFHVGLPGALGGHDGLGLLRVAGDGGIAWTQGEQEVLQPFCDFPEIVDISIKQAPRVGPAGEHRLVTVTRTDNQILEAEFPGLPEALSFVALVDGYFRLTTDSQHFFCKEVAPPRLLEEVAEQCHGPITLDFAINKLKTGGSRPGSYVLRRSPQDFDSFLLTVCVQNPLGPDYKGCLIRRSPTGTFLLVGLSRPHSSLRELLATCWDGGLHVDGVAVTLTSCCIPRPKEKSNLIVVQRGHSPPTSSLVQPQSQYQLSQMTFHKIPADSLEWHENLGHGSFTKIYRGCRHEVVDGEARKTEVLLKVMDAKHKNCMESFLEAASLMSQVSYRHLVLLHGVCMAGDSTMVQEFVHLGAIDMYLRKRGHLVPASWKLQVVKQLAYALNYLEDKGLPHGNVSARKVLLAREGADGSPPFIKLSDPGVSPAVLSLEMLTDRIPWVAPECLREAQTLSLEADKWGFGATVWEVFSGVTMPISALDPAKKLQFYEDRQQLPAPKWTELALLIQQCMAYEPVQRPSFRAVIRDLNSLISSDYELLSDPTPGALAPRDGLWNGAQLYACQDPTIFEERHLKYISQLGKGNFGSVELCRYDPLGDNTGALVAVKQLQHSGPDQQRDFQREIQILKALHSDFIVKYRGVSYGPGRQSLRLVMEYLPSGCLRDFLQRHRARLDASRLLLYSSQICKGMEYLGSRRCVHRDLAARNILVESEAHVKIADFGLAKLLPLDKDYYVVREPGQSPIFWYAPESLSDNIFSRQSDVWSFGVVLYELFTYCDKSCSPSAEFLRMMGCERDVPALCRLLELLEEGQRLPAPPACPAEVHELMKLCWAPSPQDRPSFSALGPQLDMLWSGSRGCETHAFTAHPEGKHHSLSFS

[9] = AUC (0 to infinity) in male BALB/c mouse at 10 mg/kg, po; assay type: ADME, organism-based; design: time infinity, dose 10 mg/kg, route po; conditions: in vivo
[10] = target: Tyrosine-protein kinase BTK (Homo sapiens, UniProt Q06187); assay: Inhibition of BTK in human TMD8 cells assessed as inhibition of BTK autophosphorylation at Tyr223 measured by Western blot analysis; assay type: cell-based
[11] = Toxicity in female CB-17 SCID nude mouse xenografted with human TMD8 cells assessed as reduction in lymphocytes at 50 mg/kg, po administered twice daily for 21 days; assay type: organism-based; conditions: in vivo, 504 h, time 21 day
[12] = Mutagenicity in Salmonella typhimurium TA1535 at 1.5 to 1000 ug per plate in presence of liver microsomes by AMES test; assay type: toxicity, Salmonella enterica subsp. enterica serovar Typhimurium; conditions: dose 1.5-1000 µg
[13] = system: TMD8; assay: Antitumor activity against human TMD8 cells xenografted in female CB-17 SCID nude mouse assessed as tumor growth inhibition at 50 mg/kg, po administered twice daily for 21 days; assay type: functional; conditions: TMD8, 504 h, time 21 day, read-out: TGI
[14] = Toxicity in female CB-17 SCID nude mouse xenografted with human TMD8 cells assessed as effect on body weight at 12.5 to 50 mg/kg, po administered twice daily for 21 days; assay type: organism-based; conditions: in vivo, 504 h, dose 12.5-50 mg/kg, time 21 day
[15] = system: TMD8; assay: Cell cycle arrest in human TMD8 cells assessed as accumulation of cells at G2 phase at 10 nM after 48 hrs by propidium iodide staining based flow cytometric analysis (reference value: 13.4%); assay type: functional

Chain of Tyrosine-protein kinase BTK (Q06187 whole entry): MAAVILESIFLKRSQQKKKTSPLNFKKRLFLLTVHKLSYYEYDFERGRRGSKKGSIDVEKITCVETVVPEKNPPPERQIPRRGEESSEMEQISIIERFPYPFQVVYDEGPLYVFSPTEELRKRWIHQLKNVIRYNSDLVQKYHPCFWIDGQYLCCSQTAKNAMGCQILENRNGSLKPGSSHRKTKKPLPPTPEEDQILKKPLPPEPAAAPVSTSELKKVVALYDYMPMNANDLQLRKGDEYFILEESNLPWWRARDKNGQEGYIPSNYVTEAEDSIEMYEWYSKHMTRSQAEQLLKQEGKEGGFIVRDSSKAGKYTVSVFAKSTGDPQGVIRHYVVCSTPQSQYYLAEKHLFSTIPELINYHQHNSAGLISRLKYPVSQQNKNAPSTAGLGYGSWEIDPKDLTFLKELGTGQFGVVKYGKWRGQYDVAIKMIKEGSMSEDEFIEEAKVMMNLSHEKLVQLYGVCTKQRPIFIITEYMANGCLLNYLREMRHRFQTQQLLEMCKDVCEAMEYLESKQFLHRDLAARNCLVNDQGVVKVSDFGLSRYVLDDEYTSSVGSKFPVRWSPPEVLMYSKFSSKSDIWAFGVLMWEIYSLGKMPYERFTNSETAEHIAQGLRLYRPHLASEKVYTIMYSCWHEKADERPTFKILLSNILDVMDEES

IC50 [1]: > 10000 nM | Cmax [2]: 1440 ng/mL | bioavailability [3]: 41% | Activity [8]: 3.8% | AUC(0-inf) [9]: 1470 ng·h/mL | IC50 [10]: 1.49 nM
Structure (SMILES): C=CC(=O)N1CC=C(c2c[nH]c3ncnc(-c4ccc(CNC(=O)c5ccccc5)c(F)c4)c23)CC1
Activity [4]: 11.8% | Activity [5]: Non-Toxic | Activity [6]: Non-Toxic | Activity [7]: Non-Toxic | Activity [11]: Toxic | Activity [12]: Non-Toxic | inhibition in vivo at 50 mg/kg [13]: 104% | Activity [14]: Non-Toxic | Activity [15]: 8.7%
